BindingDB's records for doi:10.1016/s0028-3908(97)00161-5 (University of Bristol, 1997)

Target: Glutamate receptor (Oryctolagus cuniculus, UniProt G1SXH9)
Sequence (G1SXH9 whole entry): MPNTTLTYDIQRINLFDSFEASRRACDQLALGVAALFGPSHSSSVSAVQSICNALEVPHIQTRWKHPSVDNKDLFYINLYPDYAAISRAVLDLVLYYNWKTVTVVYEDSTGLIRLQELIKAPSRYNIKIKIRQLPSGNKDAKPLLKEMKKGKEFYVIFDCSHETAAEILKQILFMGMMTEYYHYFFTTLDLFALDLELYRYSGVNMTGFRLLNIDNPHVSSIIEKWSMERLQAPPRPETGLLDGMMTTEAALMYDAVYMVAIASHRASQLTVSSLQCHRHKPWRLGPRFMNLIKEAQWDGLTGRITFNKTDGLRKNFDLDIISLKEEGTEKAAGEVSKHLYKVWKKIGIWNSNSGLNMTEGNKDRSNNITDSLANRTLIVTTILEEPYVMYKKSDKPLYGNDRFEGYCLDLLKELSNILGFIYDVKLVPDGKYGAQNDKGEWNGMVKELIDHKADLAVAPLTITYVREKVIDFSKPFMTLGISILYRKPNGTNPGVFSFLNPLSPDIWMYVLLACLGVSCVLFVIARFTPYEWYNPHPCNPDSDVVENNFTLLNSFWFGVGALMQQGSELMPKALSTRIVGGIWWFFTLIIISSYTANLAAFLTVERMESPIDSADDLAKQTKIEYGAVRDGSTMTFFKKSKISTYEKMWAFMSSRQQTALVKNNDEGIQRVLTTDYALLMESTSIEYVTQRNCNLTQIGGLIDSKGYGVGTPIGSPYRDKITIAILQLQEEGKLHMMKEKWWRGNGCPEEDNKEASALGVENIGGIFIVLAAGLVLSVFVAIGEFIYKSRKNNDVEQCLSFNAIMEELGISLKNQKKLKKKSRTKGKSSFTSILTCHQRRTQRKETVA

SMILES	Ki [µM]
C/C(=C\C=C\[C@@H](C)C(=O)O)[C@H]1CN[C@H](C(=O)O)[C@H]1CC(=O)O	0.00071
N[C@@H](Cn1oc(=O)[nH]c1=O)C(=O)O [2-amino-3-(3,5-dioxo[1,2,4]oxadiazolidin-2-yl)propionic acid]	0.0165
N#Cc1cc2nc(O)c(O)nc2cc1[N+](=O)[O-] [7-Cyano-3-hydroxy-6-nitro-quinoxalin-2-ol anion]	2.15
N[C@@H](Cn1cc(F)c(=O)[nH]c1=O)C(=O)O [(S)-5-Fluorowillardiine]	> 10
CN[C@H](CC(=O)O)C(=O)O [NMDA]	> 10
